Data published in publication PMC5979531, “Structural Requirements of Alkylglyceryl-L-Ascorbic Acid Derivatives for Melanogenesis Inhibitory Activity” (International Journal of Molecular Sciences, 2018).

Assays:
[1] = tested on: tyrosinase from mushroom; assay: Mushroom tyrosinase activity; type: biochemical
Procedure: Tyrosinase activities using L-tyrosine or L-DOPA as a substrate were determined according to the protocols described previously. Briefly, samples, L-tyrosine (2.5 mM, or L-DOPA, 3.0 mM), mushroom tyrosinase (46 units/mL), and phosphate buffer were mixed in a 96-well plate and incubated at 25 °C. (L-tyrosine; 30 min, L-DOPA; 5 min). The absorbance was then measured at 492 nm.

[2] = Cell viability of B16 melanoma 4A5 cells; type: cell-based, murine; details: mouse, B16 4A5 cells
Procedure: (§1) The effects on theophylline-stimulated melanogenesis and viability of B16 melanoma 4A5 cells were examined according to previously described protocols. Briefly, murine B16 melanoma 4A5 cells were seeded into 48-well plates in DMEM. After 24 h of culture, a test compound and theophylline (1 mM) were added and incubated for 72 h. The melanin content and cell viability were then measured. IC50 values were determined graphically.

[3] = tested on: B16 melanoma 4A5 cells; assay: Theophylline-stimulated melanogenesis inhibition (melanin content); type: cell-based, murine; details: 72 h; for inhibition at 3 µM / inhibition at 10 µM / inhibition at 30 µM / inhibition at 100 µM / IC50 / inhibition at 300 µM / inhibition at 1000 µM / inhibition at 3000 µM: Mus musculus; for inhibition at 3 µM / inhibition at 10 µM / inhibition at 30 µM / inhibition at 100 µM / inhibition at 300 µM / inhibition at 1000 µM / inhibition at 3000 µM / Inhibition (%) of melanogenesis: theophylline-stimulated B16 4A5 cells; for IC50: theophylline (1 mM)-stimulated B16 melanoma 4A5 cells; for inhibition at 3000 µM / Inhibition (%) of melanogenesis: 3000 µM
Procedure: as §1
Inhibition (%) was calculated using the following formula, where A and B indicate the optical density of the vehicle- and test compound-treated groups, respectively, and C indicates cell viability (%) (see below): Inhibition (%) = [(A − B)/A]/(C/100) × 100.

IC50 [3] [µM]	SMILES	viability at 72 h, 100 µM [2] [%]	inhibition at 100 µM [3] [%]	viability at 72 h, 300 µM [2] [%]	viability at 72 h, 1000 µM [2] [%]	viability at 72 h, 3000 µM [2] [%]	inhibition at 300 µM [3] [%]	inhibition at 1000 µM [3] [%]	inhibition at 3000 µM [3] [%]	further results
11.7	CCCCCCCCCCCCCOC1=C(OCC(O)CO)C(=O)O[C@@H]1[C@@H](O)CO (stereo partly shown) [compound 27, 2-O-(2,3-dihydroxypropyl)-3-O-tridecyl-AsA]	21	113 ± 10.1							Inhibition (%) of mushroom tyrosinase ([1]; Substrate: L-DOPA, 10 µM): −2.0 ± 3.3%; Inhibition (%) of mushroom tyrosinase ([1]; Substrate: L-DOPA, 30 µM): −3.2 ± 2.7%; Inhibition (%) of mushroom tyrosinase ([1]; Substrate: L-Tyrosine, 10 µM): −3.3 ± 8.1%; Inhibition (%) of mushroom tyrosinase ([1]; Substrate: L-Tyrosine, 30 µM): −5.4 ± 1.9%; viability at 72 h, 3 µM [2]: 105%; viability at 72 h, 10 µM [2]: 84.3%; viability at 72 h, 30 µM [2]: 40.2%; inhibition at 3 µM [3]: 20.1 ± 5.7%; inhibition at 10 µM [3]: 44.2 ± 3.9%; inhibition at 30 µM [3]: 96.6 ± 3%
72.9	CCCCCCCCCOC1=C(OCC(O)CO)C(=O)O[C@@H]1[C@@H](O)CO (stereo partly shown) [compound 23, 2-O-(2,3-dihydroxypropyl)-3-O-nonyl-AsA]	60.7	77.1 ± 2.4							Inhibition (%) of mushroom tyrosinase ([1]; Substrate: L-DOPA, 30 µM): −4.1 ± 2.2%; Inhibition (%) of mushroom tyrosinase ([1]; Substrate: L-DOPA, 100 µM): −1.5 ± 2.2%; Inhibition (%) of mushroom tyrosinase ([1]; Substrate: L-Tyrosine, 30 µM): −5.0 ± 3.1%; Inhibition (%) of mushroom tyrosinase ([1]; Substrate: L-Tyrosine, 100 µM): −2.6 ± 2.4%; viability at 72 h, 3 µM [2]: 96.6%; viability at 72 h, 10 µM [2]: 90.6%; viability at 72 h, 30 µM [2]: 81.2%; inhibition at 3 µM [3]: -1.3 ± 9.4%; inhibition at 10 µM [3]: -2.6 ± 8%; inhibition at 30 µM [3]: 14.9 ± 5.6%
283	CCCCCOC1=C(OCC(O)CO)C(=O)O[C@@H]1[C@@H](O)CO (stereo partly shown) [compound 19, 2-O-(2,3-dihydroxypropyl)-3-O-pentyl-AsA]	86.7	14 ± 4.4	73.4	54.7	22.5	53 ± 1.1	83.1 ± 1.4	97.1 ± 0.9	
13	CCCCCCCCCCOC1=C(OCC(O)CO)[C@@H]([C@@H](O)CO)OC1=O (stereo partly shown) [compound 10, 2-O-decyl-3-O-(2,3-dihydroxypropyl)-AsA]	27.9	98 ± 3.7							Inhibition (%) of mushroom tyrosinase ([1]; Substrate: L-DOPA, 10 µM): 0.4 ± 1.1%; Inhibition (%) of mushroom tyrosinase ([1]; Substrate: L-DOPA, 30 µM): 2.4 ± 2.9%; Inhibition (%) of mushroom tyrosinase ([1]; Substrate: L-Tyrosine, 10 µM): 1.3 ± 3.1%; Inhibition (%) of mushroom tyrosinase ([1]; Substrate: L-Tyrosine, 30 µM): 0.4 ± 1.7%; viability at 72 h, 3 µM [2]: 98.6%; viability at 72 h, 10 µM [2]: 85.9%; viability at 72 h, 30 µM [2]: 73.5%; inhibition at 3 µM [3]: 3.7 ± 7.8%; inhibition at 10 µM [3]: 39.2 ± 4.1%; inhibition at 30 µM [3]: 78.1 ± 4.8%
> 3000	CCCOC1=C(OCC(O)CO)C(=O)O[C@@H]1[C@@H](O)CO (stereo partly shown) [compound 17, 2-O-(2,3-dihydroxypropyl)-3-O-propyl-AsA]	98.4	-5.9 ± 3.3	95.6	92	82.9	-3.9 ± 4.1	1.3 ± 4.2	23.2 ± 5.6	
> 3000	O=C1O[C@H]([C@@H](O)CO)C(O)=C1OCC(O)CO (stereo partly shown) [compound 15, 2-O-(2,3-dihydroxypropyl)-AsA]	101	-9.7 ± 1.2	102	102	107	-4.8 ± 1	-2.3 ± 1.7	-6.1 ± 2.7	
> 3000	CCOC1=C(OCC(O)CO)C(=O)O[C@@H]1[C@@H](O)CO (stereo partly shown) [compound 16, 2-O-(2,3-dihydroxypropyl)-3-O-ethyl-AsA]	105	-4.2 ± 2.3	95.9	95.9	84	-5.4 ± 1.5	12.1 ± 2.2	42 ± 1.4	
473	CCCCOC1=C(OCC(O)CO)C(=O)O[C@@H]1[C@@H](O)CO (stereo partly shown) [compound 18, 3-O-butyl-2-O-(2,3-dihydroxypropyl)-AsA]	99.8	0.2 ± 4.4	89.1	78.1	70.6	36.3 ± 2.8	68 ± 2.1	84.1 ± 1.4	

The remaining lines, values behind:

SMILES	IC50 [3] [µM]	viability at 72 h, 100 µM [2] [%]	inhibition at 100 µM [3] [%]	viability at 72 h, 300 µM [2] [%]	viability at 72 h, 1000 µM [2] [%]	viability at 72 h, 3000 µM [2] [%]	inhibition at 300 µM [3] [%]	inhibition at 1000 µM [3] [%]	inhibition at 3000 µM [3] [%]	further results
OC[C@H]1O[C@@H](Oc2ccc(O)cc2)[C@H](O)[C@@H](O)[C@@H]1O [Arbutin, reference compound]	830	92.2	32.2 ± 3.4	96	96.2	106	22.3 ± 4.3	63 ± 2.3	94 ± 2.8	
CCCCCCCCOC1=C(OCC(O)CO)[C@@H]([C@@H](O)CO)OC1=O (stereo partly shown) [compound 8, 3-O-(2,3-dihydroxypropyl)-2-O-octyl-AsA]	68.8	80	64.1 ± 8.2							Inhibition (%) of mushroom tyrosinase ([1]; Substrate: L-DOPA, 30 µM): 2.4 ± 1.1%; Inhibition (%) of mushroom tyrosinase ([1]; Substrate: L-DOPA, 100 µM): 2.3 ± 2.7%; Inhibition (%) of mushroom tyrosinase ([1]; Substrate: L-Tyrosine, 30 µM): −0.3 ± 2.3%; Inhibition (%) of mushroom tyrosinase ([1]; Substrate: L-Tyrosine, 100 µM): −0.6 ± 4.3%; viability at 72 h, 3 µM [2]: 108%; viability at 72 h, 10 µM [2]: 103%; viability at 72 h, 30 µM [2]: 92.5%; inhibition at 3 µM [3]: 5.7 ± 6.9%; inhibition at 10 µM [3]: 10.6 ± 4.6%; inhibition at 30 µM [3]: 22.4 ± 4.4%
O=C1O[C@H]([C@H](O)CO)C(O)=C1O [Erythrobic acid, reference compound]		98.7	-22.9 ± 6.5	94.8	44.5	29.8	-10.6 ± 4.8	75.8 ± 4.2	92.6 ± 15.3	
Oc1ccc(O)cc1 [Hydroquinone, reference compound]	8.7									viability at 72 h, 3 µM [2]: 94.1%; viability at 72 h, 10 µM [2]: 85.2%; viability at 72 h, 30 µM [2]: 64.3%; inhibition at 3 µM [3]: 37.4 ± 3.7%; inhibition at 10 µM [3]: 59.5 ± 3.7%; inhibition at 30 µM [3]: 76.3 ± 2.1%
CCCOC1=C(OCC(O)CO)[C@@H]([C@@H](O)CO)OC1=O (stereo partly shown) [compound 3, 3-O-(2,3-dihydroxypropyl)-2-O-propyl-AsA]	> 3000	102	-2.1 ± 5.3	98.2	94.5	95	8.2 ± 3.2	2.5 ± 7.9	35.9 ± 3.4	
CCCCOC1=C(OCC(O)CO)[C@@H]([C@@H](O)CO)OC1=O (stereo partly shown) [compound 4, 2-O-butyl-3-O-(2,3-dihydroxypropyl)-AsA]	2220	94.5	-1.2 ± 0.8	97.4	93.9	88.7	20.8 ± 10.6	30.2 ± 5.1	58.9 ± 2.7	
O=C1O[C@H]([C@@H](O)CO)C(O)=C1O[C@H]1O[C@H](CO)[C@@H](O)[C@H](O)[C@H]1O [2-O-α-D-Glucopyranosyl-AsA, reference compound]	> 3000				107	108		-8.9 ± 2.7	15 ± 3.5	Inhibition (%) of melanogenesis [3]: significantly inhibit melanogenesis
O=C1O[C@H]([C@@H](O)CO)C(OCC(O)CO)=C1O (stereo partly shown) [compound 1, 3-O-(2,3-dihydroxypropyl)-AsA]	> 3000	100	-11.8 ± 1.9	96.8	100	108	-10.7 ± 1.1	-5 ± 2.9	0.5 ± 2.5	
O=C1O[C@H]([C@@H](O)CO)C(O)=C1OP(=O)(O)O [Magnesium L-ascorbyl-2-phosphate, reference compound]	> 3000				126	92.8		2.1 ± 4.1	14.5 ± 1.3	Inhibition (%) of melanogenesis [3]: significantly inhibit melanogenesis
CCCCCOC1=C(OCC(O)CO)[C@@H]([C@@H](O)CO)OC1=O (stereo partly shown) [compound 5, 3-O-(2,3-dihydroxypropyl)-2-O-pentyl-AsA]	931	118	-14 ± 9.7	107	105	78.7	29.8 ± 8.1	45.9 ± 1.2	81.9 ± 3.3	
CCOC1=C(OCC(O)CO)[C@@H]([C@@H](O)CO)OC1=O (stereo partly shown) [compound 2, 3-O-(2,3-dihydroxypropyl)-2-O-ethyl-AsA]	> 3000	101	-28.1 ± 3.2	99.7	101	104	-2.8 ± 3.6	-8.9 ± 2	40.4 ± 8.6	
